These results are taken from publication PMC4865820, “Branched Peptide, B2088, Disrupts the Supramolecular Organization of Lipopolysaccharides and Sensitizes the Gram-negative Bacteria” (Scientific Reports, 2016).

Converted amounts (≈) assume the structure as drawn. Marks after values point to notes of the source that are not given here. Positions of bridges follow the written chain, without caps; N, C: chain ends. Non-standard residues stand in square brackets, D forms with d. Residues, ends and D or L forms follow the SMILES beside them. Chains are numbered I, II in the order given. *: point of attachment. X1 = CC[C@H](C)CCCCC(=O)*; Dab = NCC[C@H](N)C(=O)O

For one test, the system named is K. pneumoniae 31158. Briefly: microbe, parasite or virus in culture. As to conditions: for MIC: Klebsiella pneumoniae, 31158, individual peptide/antibiotics, read-out: MIC against K. pneumoniae 31158. It counts as cell-based.
A further test concerns K. pneumonia 4299. Briefly: microbe, parasite or virus in culture. It counts as cell-based, K. pneumoniae. As to conditions: for MIC: Klebsiella pneumoniae, 4299, individual peptide/antibiotics, read-out: MIC against K. pneumoniae 4299. The method, boiled down: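 Peptides two-fold diluted in Mueller-Hinton Broth (0.0976–50 μg/ml final) against 10^5–10^6 CFU/ml inoculum, 37 °C for 24 h with OD600 monitored every 30 min. MIC = lowest concentration with no visible growth; two independent duplicates.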

Test [1] has as its system A549 cells infected with P. aeruginosa ATCC 9027. Briefly: Intracellular bacterial load in infected A549 cells. It counts as cell-based. As to conditions: 24 h; for Intracellular bacterial load: antibiotic alone, gatifloxacin at 2 μg/ml. On the procedure:
Human lung A549 epithelial cells (ATCC CCL185) were seeded at a density of 10^5 cells/well in a 24 well plate. Next day cells were infected with P. aeroginosa 9027 strains at the multiplicity of infection of 5 for 2 h. Cells were then washed thrice with PBS followed by DMEM to remove the extracellular bacteria. The washed cells were subsequently treated with 200 μg/ml gentamicin to kill any extracellular bacteria. After 1 h cells were washed with PBS again to remove the dead bacteria and the cells were either mixed with antibiotics (Tobramycin or Gatifloxacin) alone or in combination with B2088. After 24 h, the cells were lysed with 0.1% Triton-X100 and the lysates were serially diluted and plated on to a tryptic soy agar (TSA) plates for colony counting.

The subject of another test is K. pneumoniae 07955. Briefly: microbe, parasite or virus in culture. The test is classed as cell-based. As to conditions: for MIC: Klebsiella pneumoniae, 07955, individual peptide/antibiotics, read-out: MIC against K. pneumoniae 07955.
The test system of test [2] is P. aeruginosa DR4877/07. The test is classed as cell-based. As to conditions: for Fractional inhibitory concentration of peptide/PMB, combination with Chloarm / Fractional inhibitory concentration of peptide/PMB, combination with Erythro / Fractional inhibitory concentration of peptide/PMB, combination with Levo / Fractional inhibitory concentration of peptide/PMB, combination with Tobra: first number in parenthesis; for Fold decrease in the MIC of antibiotics at sub-lethal/sub-inhibitory concentrations of B2088: multidrug resistant P. aeruginosa 4877; for Fractional inhibitory concentration of antibiotic, Chloarm combination / Fractional inhibitory concentration of antibiotic, Erythro combination / Fractional inhibitory concentration of antibiotic, Levo combination / Fractional inhibitory concentration of antibiotic, Tobra combination: second number in parenthesis; for FICI of B2088-antibiotic combination: lowest FICI reported, two independent duplicates. The method, boiled down:
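Checkerboard combinations of peptide and antibiotic, each 2-fold diluted up to 1× MIC in MHB, were tested against ~10^6 CFU/ml final inoculum. Plates were incubated 24 h at 37 °C, with growth read at OD600. FICI was the sum of the combination-to-alone MIC ratios for each agent, and the lowest FICI from duplicate experiments was reported.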

Test [3] concerns P. aeruginosa DR4877/07. Briefly: microbe, parasite or virus in culture. As to conditions: for MIC: Pseudomonas aeruginosa, DR4877/07, 24 h, read-out: MIC of antibiotics. On the procedure:
MIC of each peptide was determined using the microdilution method in a 96 well microtitre plates (SPL Life Sciences Co., Ltd, Korea). Two-fold serial dilutions of each peptide in Mueller-Hinton Broth (MHB) was prepared from a 1 mg/ml stock solution of the peptide in the same broth, to obtain a final concentration in the range of 0.0976–50 μg/ml in each well. Bacterial suspensions (P. aeruginosa ATCC 27853, P. aeruginosa 4877, P. aeruginosa 23155, K. pneumoniae ATCC 10031 and K. pneumoniae 4299) were prepared by suspending the overnight cultured bacteria in saline and adjusting the inoculum to ~10^8 colony forming units (CFU) per ml. A further 150-fold dilution was then prepared in MHB to achieve a final cell density of 10^5–10^6 CFU/ml. In each well, 100 μl of inoculum was mixed with the equal volume of peptides at their 2× concentration. Positive and negative controls contained 200 μl of inoculum (without any peptide) and broth alone (no peptide/inoculum) respectively. Another negative control in which MHB containing 200 μl of peptide alone in its highest concentration tested (50 μg/ml) was also included to ensure that the optical density measured in the test wells was not due to turbidity of the peptides in solution. The 96 well polystyrene plates were then incubated at 37 °C for 24 h and the optical density at 600 nm (OD600) was measured every 30 min continuously using a TECAN microplate reader (TECAN Infinite 200, Austria).

Where [4] appears, read: MIC of B2088 6.25 μg/ml, MHB, ~10^6 CFU/ml, 37 °C, 24 h.
The mark [5] stands for this setting: MHB, 10^5–10^6 CFU/ml, 37 °C, 24 h, two independent duplicates.

For `CC(C)[C@H](NC(=O)[C@H](CCCCN)NC(=O)[C@H](CCCNC(=N)N)NC(=O)CNC(=O)[C@@H](N)CCCNC(=N)N)C(=O)N[C@H](C(=O)N[C@@H](CCCNC(=N)N)C(=O)N[C@@H](CCCNC(=N)N)C(=O)NCCCC[C@H](NC(=O)[C@H](CCCNC(=N)N)NC(=O)[C@H](CCCNC(=N)N)NC(=O)[C@@H](NC(=O)[C@@H](NC(=O)[C@H](CCCCN)NC(=O)[C@H](CCCNC(=N)N)NC(=O)CNC(=O)[C@@H](N)CCCNC(=N)N)C(C)C)C(C)C)C(=O)N[C@@H](CCCCN)C(=O)O)C(C)C` [B2088] (I: H-RGRKVVRRKK-OH / II: H-RGRKVVRR; amide I:9-II:C; N-terminus and C-terminus assumed), the “MIC against K. pneumoniae 31158” value in the test on K. pneumoniae 31158 (31158, 24 h) was found to be 12.5 µg/mL (≈ 5.46 µM). In the test with K. pneumonia 4299 (24 h), the “MIC against K. pneumoniae 4299” value was 12.5 µg/mL (≈ 5.46 µM) and the “Minimum Inhibitory Concentration against K. pneumonia 4299” value was 2.7 µM. In test [1] (B2088 alone at 200 μg/ml), the Intracellular bacterial burden entry is “did not decrease the intracellular bacterial burden”. In addition, the “MIC against K. pneumoniae 07955” value with K. pneumoniae 07955 (07955, 24 h) was 6.25 µg/mL (≈ 2.73 µM). Further, in the test with P. aeruginosa DR4877/07 [2], the “Fractional inhibitory concentration of peptide/PMB, combination with Chloarm” value was “(0.25,0.25)”; the “Fractional inhibitory concentration of peptide/PMB, combination with Erythro” value is “(0.5,0.5) ^‡”; the “Fractional inhibitory concentration of peptide/PMB, combination with Levo” value is listed as “(0.5,0.5)”; the “Fractional inhibitory concentration of peptide/PMB, combination with Tobra” value is “(0.25,0.25)”. Further, in the test on P. aeruginosa DR4877/07 [2], the “Fold decrease in the MIC of antibiotics at sub-lethal/sub-inhibitory concentrations of B2088” value is 2-8 fold; the “Fractional inhibitory concentration of antibiotic, Chloarm combination” value is “(0.25,0.25)”; the “Fractional inhibitory concentration of antibiotic, Erythro combination” value is “(0.5,0.5) ^‡”; the “Fractional inhibitory concentration of antibiotic, Levo combination” value is “(0.5,0.5)”. Moreover, the “Fractional inhibitory concentration of antibiotic, Tobra combination” value in the test with P. aeruginosa DR4877/07 [2] is “(0.25,0.25)”.

Consider `COc1c(N2CCNC(C)C2)c(F)cc2c(=O)c(C(=O)O)cn(C3CC3)c12` (stereo not shown) [Gatifloxacin], for which the MIC in the test with K. pneumoniae 31158 was 1.56 µg/mL (≈ 4.16 µM). Further, in the test on K. pneumonia 4299, the MIC is 1.56 µg/mL (≈ 4.16 µM). The Intracellular bacterial load entry in test [1] is “marked decrease in the intracellular bacterial burden”. In addition, the MIC in the test with P. aeruginosa DR4877/07 [3] is 31.2 µg/mL. The MIC with K. pneumoniae 07955 was found to be 1.56 µg/mL (≈ 4.16 µM). Also, in the test with P. aeruginosa DR4877/07 [2], the “FICI of polymyxin B-antibiotic combination” value was determined as 0.63 and the “FICI of B2088-antibiotic combination” value is recorded as 0.63. Besides, in the test with P. aeruginosa DR4877/07 [2] (setting [4]), the “MIC of antibiotics in the presence of ¼× sub-MIC of B2088” value worked out at 15.6 µg/mL, the “MIC of antibiotics in the presence of ½× sub-MIC of B2088” value stood at 7.8 µg/mL and the “MIC of antibiotics in the presence of ⅛× sub-MIC of B2088” value came to 15.6 µg/mL.

Consider `CC[C@H](C)CCCCC(=O)N[C@@H](CCN)C(=O)N[C@H](C(=O)N[C@@H](CCN)C(=O)N[C@H]1CCNC(=O)[C@H]([C@@H](C)O)NC(=O)[C@H](CCN)NC(=O)[C@H](CCN)NC(=O)[C@H](CC(C)C)NC(=O)[C@@H](Cc2ccccc2)NC(=O)[C@H](CCN)NC1=O)[C@@H](C)O` [Polymyxin B, polymyxin B, reference compound] (X1-[Dab]T[Dab][Dab][Dab][dF]L[Dab][Dab]T; lactam 4-C (inferred); N-terminus assumed), for which the “Minimum Inhibitory Concentration against K. pneumonia 4299” value in the test on K. pneumonia 4299 (setting [5]) came to 1.13 µM. The “Minimum Inhibitory Concentration against P. aeruginosa DR4877/07” value in the test with P. aeruginosa DR4877/07 [3] (setting [5]) stood at 1.13 µM. Besides, the MIC of Polymyxin B against this strain with P. aeruginosa DR4877/07 [3] (alone) was determined as 1.56 µg/mL. In addition, in the test on P. aeruginosa DR4877/07 [2], the “Fractional inhibitory concentration of peptide/PMB, combination with Chloarm” value is 0.125; the “Fractional inhibitory concentration of peptide/PMB, combination with Erythro” value was 0.25; the “Fractional inhibitory concentration of peptide/PMB, combination with Levo” value turned out to be 0.5; the “Fractional inhibitory concentration of peptide/PMB, combination with Tobra” value is “(0.5,0.5)”. In the test with P. aeruginosa DR4877/07 [2], the “Fractional inhibitory concentration of antibiotic, Chloarm combination” value amounted to 0.5; the “Fractional inhibitory concentration of antibiotic, Erythro combination” value worked out at 0.5; the “Fractional inhibitory concentration of antibiotic, Levo combination” value worked out at 0.25; the “Fractional inhibitory concentration of antibiotic, Tobra combination” value is recorded as “(0.5,0.5)”. Besides, the “Fractional Inhibitory Concentration Index with Chloarm” value in the test with P. aeruginosa DR4877/07 [2] (peptide + chloramphenicol) was 0.63. The “Fractional Inhibitory Concentration Index with Erythro” value with P. aeruginosa DR4877/07 [2] (peptide + erythromycin) was 0.75. Moreover, the “Fractional Inhibitory Concentration Index with Levo” value in the test with P. aeruginosa DR4877/07 [2] (peptide + levofloxacin) was 0.75. Besides, the “Fractional Inhibitory Concentration Index with Tobra” value in the test on P. aeruginosa DR4877/07 [2] (peptide + tobramycin) was determined as 1.0.

As for `NC[C@H]1O[C@H](O[C@H]2[C@H](O)[C@@H](O[C@H]3O[C@H](CO)[C@@H](O)[C@H](N)[C@H]3O)[C@H](N)C[C@@H]2N)[C@H](N)C[C@@H]1O` [Tobramycin], in the test on K. pneumoniae 31158, the MIC worked out at 0.012 µg/mL (≈ 0.0257 µM). Moreover, the MIC with K. pneumonia 4299 turned out to be 0.024 µg/mL (≈ 0.0513 µM). Further, in test [1], the Intracellular bacterial load result was “decreased the intracellular bacterial load”. Also, the MIC with P. aeruginosa DR4877/07 [3] is 800 µg/mL. Also, the MIC in the test on K. pneumoniae 07955 was 25 µg/mL (≈ 53.5 µM). Also, in the test on P. aeruginosa DR4877/07 [2], the “FICI of polymyxin B-antibiotic combination” value was determined as 1.0, the “FICI of B2088-antibiotic combination” value is 0.5 and the “Fold decrease in the MIC of antibiotics at sub-lethal/sub-inhibitory concentrations of B2088” value is 4 fold. In addition, in the test on P. aeruginosa DR4877/07 [2] (setting [4]), the “MIC of antibiotics in the presence of ¼× sub-MIC of B2088” value came out at 200 µg/mL and the “MIC of antibiotics in the presence of ½× sub-MIC of B2088” value was found to be 200 µg/mL.
